# System: Escherichia coli ATCC 25922
# Assay: Minimal Inhibitory Concentration (MIC) determination, broth microdilution (CLSI M07-A10)
# Assay type: cell-based
# Conditions: Escherichia coli, ATCC25922, strain Escherichia coli ATCC 25922, 18-24 hours at 35±2° C., lowest concentration for complete growth inhibition (no visible growth), read-out: Escherichia coli growth inhibition MIC
# Procedure, shortened: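 Broth microdilution per CLSI M07-A10; compounds in 2-fold serial dilutions; inoculum from 0.5 McFarland suspension diluted 1:200 in broth. Incubated 18-24 h at 35±2° C in ambient air; MIC (μg/mL) taken as lowest concentration giving no visible growth.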
row,SMILES,MIC [mg/L]
1,"C[C@H](N)Cn1cnc2c(F)c3c(c(F)c21)CC(CN1CCC2(CC1)CN(c1cnc4c(n1)NC(=O)CO4)C(=O)O2)C3 (stereo partly drawn) [Example 128, 6-[8-[[1-[(2S)-2-aminopropyl]-4,8-difluoro-6,7-dihydro-5H-cyclopenta[f]benzimidazol-6-yl]methyl]-2-oxo-1-oxa-3,8-diazaspiro[4.5]decan-3-yl]-4H-pyrazino[2,3-b][1,4]oxazin-3-one]",0.25
2,"O=C1COc2ncc(N3CC4(CCN(CC5Cc6c(c(F)c7c(nnn7CCNC(=O)[C@H]7C[C@H](O)CN7)c6F)C5)CC4)OC3=O)nc2N1 (stereo partly drawn) [Example 164, (2R,4S)-N-[2-[4,8-difluoro-6-[[2-oxo-3-(3-oxo-4H-pyrazino[2,3-b][1,4]oxazin-6-yl)-1-oxa-3,8-diazaspiro[4.5]decan-8-yl]methyl]-6,7-dihydro-5H-cyclopenta[f]benzotriazol-1-yl]ethyl]-4-hydroxy-pyrrolidine-2-carboxamide]",2
3,"C[C@H](C(=O)NCCn1nnc2c(F)c3c(c(F)c21)CC(CN1CCC2(CC1)CN(c1cnc4c(n1)NC(=O)CO4)C(=O)O2)C3)N(C)C (stereo partly drawn) [Example 149, (2R)—N-[2-[4,8-Difluoro-6-[[2-oxo-3-(3-oxo-4H-pyrazino[2,3-b][1,4]oxazin-6-yl)-1-oxa-3,8-diazaspiro[4.5]decan-8-yl]methyl]-6,7-dihydro-5H-cyclopenta[f]benzotriazol-1-yl]ethyl]-2-(dimethylamino)propanamide]",1
4,"C[C@H](C(=O)NCCn1nc2c(F)c3c(c(F)c2n1)CC(CN1CCC2(CC1)CN(c1cnc4c(n1)NC(=O)CO4)C(=O)O2)C3)N(C)C [Example 150, (2R)-N[2-[4,8-difluoro-6-[[2-oxo-3-(3-oxo-4H-pyrazino[2,3-b][1,4]oxazin-6-yl)-1-oxa-3,8-diazaspiro[4.5]decan-8-yl]methyl]-6,7-dihydro-5H-cyclopenta[f]benzotriazol-2-yl]ethyl]-2-(dimethylamino)propanamide]",1

# Now from value to molecule:
row,MIC [mg/L],SMILES
1,0.25,"CN[C@H]1CN[C@H](c2nc3c(F)c4c(c(F)c3[nH]2)CC(CN2CCC3(CC2)CN(c2cnc5c(n2)NC(=O)CO5)C(=O)O3)C4)C1 [Example 27, 6-[8-[[4,8-difluoro-2-[(2S,4R)-4-(methylamino)pyrrolidin-2-yl]-3,5,6,7-tetrahydrocyclopenta[f]benzimidazol-6-yl]methyl]-2-oxo-1-oxa-3,8-diazaspiro[4.5]decan-3-yl]-4H-pyrazino[2,3-b][1,4]oxazin-3-one]"
2,1,"N[C@H]1COC[C@@H]1c1nc2cc3c(c(F)c2o1)CC(CN1CCC2(CC1)CN(c1cnc4c(n1)NC(=O)CO4)C(=O)O2)C3 (stereo partly drawn) [Example 138, 6-[8-[[2-[(3R,4R)-4-Aminotetrahydrofuran-3-yl]-8-fluoro-6,7-dihydro-5H-cyclopenta[f][1,3]benzoxazol-6-yl]methyl]-2-oxo-1-oxa-3,8-diazaspiro[4.5]decan-3-yl]-4H-pyrazino[2,3-b][1,4]oxazin-3-one]"
3,≤ 0.06,"NCCn1nc2c(F)c3c(c(F)c2n1)CC(CN1CCC2(CC1)CN(c1cnc4c(n1)NC(=O)CO4)C(=O)O2)C3 [Example 41, 6-[8-[[2-(2-aminoethyl)-4,8-difluoro-6,7-dihydro-5H-cyclopenta[f]benzotriazol-6-yl]methyl]-2-oxo-1-oxa-3,8-diazaspiro[4.5]decan-3-yl]-4H-pyrazino[2,3-b][1,4]oxazin-3-one]"
4,0.5,"O=C1COc2ncc(N3CC4(CCN(CC5Cc6c(c(F)c7c(nnn7CCNC7CC7)c6F)C5)CC4)OC3=O)nc2N1.O=CO (single isomer, unassigned) [Example 124, 6-[8-[[1-[2-(Cyclopropylamino)ethyl]-4,8-difluoro-6,7-dihydro-5H-cyclopenta[f]benzotriazol-6-yl]methyl]-2-oxo-1-oxa-3,8-diazaspiro[4.5]decan-3-yl]-4H-pyrazino[2,3-b][1,4]oxazin-3-one;formic acid]"
5,0.125,"CN[C@H](C)c1nc2c(F)c3c(c(F)c2[nH]1)CC(CN1CCC2(CC1)CN(c1cnc4c(n1)NC(=O)CO4)C(=O)O2)C3.O=C(O)C(F)(F)F [Example 17, 6-[8-[[4,8-difluoro-2-[(1R)-1-(methylamino)ethyl]-3,5,6,7-tetrahydrocyclopenta[f]benzimidazol-6-yl]methyl]-2-oxo-1-oxa-3,8-diazaspiro[4.5]decan-3-yl]-4H-pyrazino[2,3-b][1,4]oxazin-3-one; 2,2,2-trifluoroacetic acid]"
6,0.25,"O=C(O)C(F)(F)F.O=C1COc2ccc(N3CC4(CCN(CC5Cc6c(c(F)c7[nH]c([C@H]8CCNC8)nc7c6F)C5)CC4)OC3=O)nc2N1 [Example 15, 6-[8-[[4,8-difluoro-2-[(3S)-pyrrolidin-3-yl]-3,5,6,7-tetrahydrocyclopenta[f]benzimidazol-6-yl]methyl]-2-oxo-1-oxa-3,8-diazaspiro[4.5]decan-3-yl]-4H-pyrido[3,2-b][1,4]oxazin-3-one; 2,2,2-trifluoroacetic acid]"
7,1,"CN(C)CC(=O)N(C)CCn1nc2c(F)c3c(c(F)c2n1)CC(CN1CCC2(CC1)CN(c1cnc4c(n1)NC(=O)CO4)C(=O)O2)C3 [Example 155, N-[2-[4,8-difluoro-6-[[2-oxo-3-(3-oxo-4H-pyrazino[2,3-b][1,4]oxazin-6-yl)-1-oxa-3,8-diazaspiro[4.5]decan-8-yl]methyl]-6,7-dihydro-5H-cyclopenta[f]benzotriazol-2-yl]ethyl]-2-(dimethylamino)-N-methyl-acetamide]"
8,0.5,"CN(C)CC(=O)NCCn1nnc2c(F)c3c(c(F)c21)CC(CN1CCC2(CC1)CN(c1cnc4c(n1)NC(=O)CO4)C(=O)O2)C3 (stereo not drawn) [Example 168, N-[2-[4,8-difluoro-6-[[2-oxo-3-(3-oxo-4H-pyrazino[2,3-b][1,4]oxazin-6-yl)-1-oxa-3,8-diazaspiro[4.5]decan-8-yl]methyl]-6,7-dihydro-5H-cyclopenta[f]benzotriazol-1-yl]ethyl]-2-(dimethylamino)acetamide]"

# Same assay, conditions: strain Escherichia coli ATCC 25922, 18-24 hours at 35±2° C., lowest concentration for complete growth inhibition (no visible growth)
row,Escherichia coli growth inhibition MIC [mg/L],SMILES
1,0.125,"NCCc1nc2cc3c(c(F)c2o1)CC(CN1CCC2(CC1)CN(c1cnc4c(n1)NC(=O)CO4)C(=O)O2)C3 (single isomer, unassigned) [Example 102, 6-[8-[[2-(2-aminoethyl)-8-fluoro-6,7-dihydro-5H-cyclopenta[f][1,3]benzoxazol-6-yl]methyl]-2-oxo-1-oxa-3,8-diazaspiro[4.5]decan-3-yl]-4H-pyrazino[2,3-b][1,4]oxazin-3-one]"
2,0.25,"CNC(CO)c1nc2c(F)c3c(c(F)c2[nH]1)CC(CN1CCC2(CC1)CN(c1cnc4c(n1)NC(=O)CO4)C(=O)O2)C3 (single isomer, unassigned) [Example 67, 6-[8-[[4,8-Difluoro-2-[2-hydroxy-1-(methylamino)ethyl]-3,5,6,7-tetrahydrocyclopenta[f]benzimidazol-6-yl]methyl]-2-oxo-1-oxa-3,8-diazaspiro[4.5]decan-3-yl]-4H-pyrazino[2,3-b][1,4]oxazin-3-one]"

# Same assay, conditions: strain Escherichia coli ATCC 25922, 18-24 hours at 35±2° C., lowest concentration for complete growth inhibition (no visible growth), formic acid
row,Escherichia coli growth inhibition MIC [mg/L],SMILES
1,0.25,"O=C1COc2ncc(N3CC4(CCN(CC5Cc6cc7c(nnn7C7CNC7)c(F)c6C5)CC4)OC3=O)nc2N1.O=CO (single isomer, unassigned) [Example 116, 6-[2-oxo-8-[[3-(azetidin-3-yl)-8-fluoro-6,7-dihydro-5H-cyclopenta[f]benzotriazol-6-yl]methyl]-1-oxa-3,8-diazaspiro[4.5]decan-3-yl]-4H-pyrazino[2,3-b][1,4]oxazin-3-one; formic acid]"

# — US20240252506A1 (Hoffmann-La Roche Inc., priority 2021, published 2024)
